ChEMBL document CHEMBL3885861, “Open TG-GATES”

Species on record: Rattus norvegicus
Test: Open TG-GATES - Regimen: Single
Format: toxicity, organism-based, Sprague-Dawley
Set-up: regimen Single, gender Male, age 6 weeks
Details: in vivo, ip, 300 mg/kg, route intraperitoneal injection, dose level Middle; for APTT / Bas / Eos / Fbg / Hb / Ht / Lym / MCH / MCHC / MCV / Mono / Neu / PT / Plat / RBC / Ret / WBC: tissue Blood; for KIDNEY_L / KIDNEY_R / KIDNEY_TOTAL: tissue Kidney; for LIVER: tissue Liver; for A/G / ALP / ALT / AST / BUN / CRE / Ca / Cl / DBIL / GLC / IP / K / LDH / Na / PL / RALB / TBIL / TC / TG / TP / gamma-GTP: tissue Plasma

`N[C@H]1C(O)O[C@H](CO)[C@@H](O)[C@@H]1O` (some centres not stated) [GLUCOSAMINE] was tested, and the TERMINAL_BW (3 h) was 188.6 g, the APTT (3 h) was 17.5 s and the Bas (3 h) was 0.4%. It also gave an Eos (3 h) of 0.4%, a Fbg (3 h) of 247.4 mg/dL and a Hb (3 h) of 12.6 g/dL. It also gave a Ht (3 h) of 38.9%, a Lym (3 h) of 67% and an MCH (3 h) of 21 pg. The MCHC (3 h) was 32.3%, the MCV (3 h) was 64.9 fL and the Mono (3 h) was 4%. It also gave a Neu (3 h) of 27%, a PT (3 h) of 16.2 s and a Plat (3 h) of 112.1 x10_4/uL. The RBC (3 h) was 600.6 x10_4/ul, the Ret (3 h) was 9.4% and the WBC (3 h) was 96.7 x10_2/uL. For the same molecule, the KIDNEY_L (3 h) was 0.9 g, the KIDNEY_R (3 h) was 0.9 g and the KIDNEY_TOTAL (3 h) was 1.8 g. The LIVER (3 h) was 8.4 g, the A/G (3 h) was 0.9 and the ALP (3 h) was 1578.8 IU/L. For the same molecule, the ALT (3 h) was 43.4 IU/L, the AST (3 h) was 82 IU/L and the BUN (3 h) was 10.6 mg/dL. It also gave a CRE (3 h) of 0.2 mg/dL, a Ca (3 h) of 10.5 mg/dL and a Cl (3 h) of 107.8 meq/L. For the same molecule, the DBIL (3 h) was 0.012 mg/dL, the GLC (3 h) was 165.8 mg/dL and the IP (3 h) was 8.9 mg/dL. For the same molecule, the K (3 h) was 4 meq/L, the LDH (3 h) was 55.6 IU/L and the Na (3 h) was 142.2 meq/L. For the same molecule, the PL (3 h) was 136.4 mg/dL, the RALB (3 h) was 2.3 g/dL and the TBIL (3 h) was 0.052 mg/dL. For the same molecule, the TC (3 h) was 76.6 mg/dL, the TG (3 h) was 34.8 mg/dL and the TP (3 h) was 5 g/dL. It also gave a gamma-GTP (3 h) of 1 IU/L, a TERMINAL_BW (6 h) of 188.8 g and an APTT (6 h) of 20.1 s. The Bas (6 h) was 0.2%, the Eos (6 h) was 1% and the Fbg (6 h) was 234.4 mg/dL. It also gave a Hb (6 h) of 13.6 g/dL, a Ht (6 h) of 41.5% and a Lym (6 h) of 63%. It also gave an MCH (6 h) of 21.3 pg, an MCHC (6 h) of 32.7% and an MCV (6 h) of 65.2 fL. For the same molecule, the Mono (6 h) was 2.6%, the Neu (6 h) was 32.6% and the PT (6 h) was 18.9 s. For the same molecule, the Plat (6 h) was 107.5 x10_4/uL, the RBC (6 h) was 636.8 x10_4/ul and the Ret (6 h) was 9%. The WBC (6 h) was 50.8 x10_2/uL, the KIDNEY_L (6 h) was 0.8 g and the KIDNEY_R (6 h) was 0.8 g. For the same molecule, the KIDNEY_TOTAL (6 h) was 1.6 g, the LIVER (6 h) was 8.4 g and the A/G (6 h) was 0.9. For the same molecule, the ALP (6 h) was 1576.2 IU/L, the ALT (6 h) was 145.8 IU/L and the AST (6 h) was 213.4 IU/L. The BUN (6 h) was 13.8 mg/dL, the CRE (6 h) was 0.2 mg/dL and the Ca (6 h) was 10.2 mg/dL. It also gave a Cl (6 h) of 107.2 meq/L, a DBIL (6 h) of 0.01 mg/dL and a GLC (6 h) of 164.4 mg/dL. For the same molecule, the IP (6 h) was 9 mg/dL, the K (6 h) was 3.7 meq/L and the LDH (6 h) was 212.6 IU/L. It also gave a Na (6 h) of 142.4 meq/L, a PL (6 h) of 129.8 mg/dL and an RALB (6 h) of 2.3 g/dL. For the same molecule, the TBIL (6 h) was 0.054 mg/dL, the TC (6 h) was 70 mg/dL and the TG (6 h) was 17.8 mg/dL. For the same molecule, the TP (6 h) was 4.9 g/dL, the gamma-GTP (6 h) was 1 IU/L and the TERMINAL_BW (9 h) was 183.2 g. The APTT (9 h) was 18.5 s, the Bas (9 h) was 0% and the Eos (9 h) was 0.6%. For the same molecule, the Fbg (9 h) was 307.6 mg/dL, the Hb (9 h) was 12.7 g/dL and the Ht (9 h) was 39%. It also gave a Lym (9 h) of 73%, an MCH (9 h) of 21.1 pg and an MCHC (9 h) of 32.6%. It also gave an MCV (9 h) of 64.7 fL, a Mono (9 h) of 1.8% and a Neu (9 h) of 23.6%. The PT (9 h) was 17.2 s, the Plat (9 h) was 109.8 x10_4/uL and the RBC (9 h) was 602.8 x10_4/ul. It also gave a Ret (9 h) of 9.2%, a WBC (9 h) of 55.1 x10_2/uL and a KIDNEY_L (9 h) of 0.9 g. For the same molecule, the KIDNEY_R (9 h) was 0.9 g, the KIDNEY_TOTAL (9 h) was 1.7 g and the LIVER (9 h) was 7.3 g. For the same molecule, the A/G (9 h) was 0.9, the ALP (9 h) was 1464 IU/L and the ALT (9 h) was 40.6 IU/L. For the same molecule, the AST (9 h) was 84.4 IU/L, the BUN (9 h) was 7.6 mg/dL and the CRE (9 h) was 0.1 mg/dL. For the same molecule, the Ca (9 h) was 10.3 mg/dL, the Cl (9 h) was 107.4 meq/L and the DBIL (9 h) was 0.012 mg/dL. For the same molecule, the GLC (9 h) was 162.2 mg/dL, the IP (9 h) was 9.9 mg/dL and the K (9 h) was 3.8 meq/L. The LDH (9 h) was 54.6 IU/L, the Na (9 h) was 142 meq/L and the PL (9 h) was 117.8 mg/dL. The RALB (9 h) was 2.4 g/dL, the TBIL (9 h) was 0.06 mg/dL and the TC (9 h) was 63.4 mg/dL. The TG (9 h) was 23.6 mg/dL, the TP (9 h) was 5.2 g/dL and the gamma-GTP (9 h) was 0.8 IU/L. The TERMINAL_BW (24 h) was 190.9 g, the APTT (24 h) was 19.9 s and the Bas (24 h) was 0.6%. For the same molecule, the Eos (24 h) was 1.4%, the Fbg (24 h) was 205.8 mg/dL and the Hb (24 h) was 14.1 g/dL. For the same molecule, the Ht (24 h) was 43.4%, the Lym (24 h) was 70% and the MCH (24 h) was 20.9 pg. It also gave an MCHC (24 h) of 32.5%, an MCV (24 h) of 64.3 fL and a Mono (24 h) of 3.8%. For the same molecule, the Neu (24 h) was 23%, the PT (24 h) was 25.4 s and the Plat (24 h) was 102.4 x10_4/uL. It also gave an RBC (24 h) of 675.6 x10_4/ul, a Ret (24 h) of 7.9% and a WBC (24 h) of 79.5 x10_2/uL. The KIDNEY_L (24 h) was 0.8 g, the KIDNEY_R (24 h) was 0.9 g and the KIDNEY_TOTAL (24 h) was 1.7 g. It also gave an LIVER (24 h) of 8.1 g, an A/G (24 h) of 0.9 and an ALP (24 h) of 2031.4 IU/L. It also gave an ALT (24 h) of 214.6 IU/L, an AST (24 h) of 341.6 IU/L and a BUN (24 h) of 13.4 mg/dL. It also gave a CRE (24 h) of 0.2 mg/dL, a Ca (24 h) of 10.3 mg/dL and a Cl (24 h) of 107 meq/L. For the same molecule, the DBIL (24 h) was 0.068 mg/dL, the GLC (24 h) was 165.4 mg/dL and the IP (24 h) was 9.1 mg/dL. It also gave a K (24 h) of 4.3 meq/L, an LDH (24 h) of 168 IU/L and a Na (24 h) of 143.8 meq/L. The PL (24 h) was 118.2 mg/dL, the RALB (24 h) was 2.4 g/dL and the TBIL (24 h) was 0.1 mg/dL. It also gave a TC (24 h) of 57.2 mg/dL, a TG (24 h) of 42 mg/dL and a TP (24 h) of 5.2 g/dL. The gamma-GTP (24 h) was 1 IU/L.
